This is an account of results in ChEMBL document CHEMBL4152229, “Synthesis and biological evaluation of 2,6-disubstituted-9H-purine, 2,4-disubstitued-thieno[3,2-d]pyrimidine and -7H-pyrrolo[2,3-d]pyrimidine analogues as novel CHK1 inhibitors” (Eur J Med Chem, 2018).

Structures are written as SMILES. A value given as a limit tells only on which side of the number the result lay.

In assay [1] the target is T1, Serine/threonine-protein kinase Chk1 (Homo sapiens, UniProt O14757).
T1 sequence (O14757 whole entry): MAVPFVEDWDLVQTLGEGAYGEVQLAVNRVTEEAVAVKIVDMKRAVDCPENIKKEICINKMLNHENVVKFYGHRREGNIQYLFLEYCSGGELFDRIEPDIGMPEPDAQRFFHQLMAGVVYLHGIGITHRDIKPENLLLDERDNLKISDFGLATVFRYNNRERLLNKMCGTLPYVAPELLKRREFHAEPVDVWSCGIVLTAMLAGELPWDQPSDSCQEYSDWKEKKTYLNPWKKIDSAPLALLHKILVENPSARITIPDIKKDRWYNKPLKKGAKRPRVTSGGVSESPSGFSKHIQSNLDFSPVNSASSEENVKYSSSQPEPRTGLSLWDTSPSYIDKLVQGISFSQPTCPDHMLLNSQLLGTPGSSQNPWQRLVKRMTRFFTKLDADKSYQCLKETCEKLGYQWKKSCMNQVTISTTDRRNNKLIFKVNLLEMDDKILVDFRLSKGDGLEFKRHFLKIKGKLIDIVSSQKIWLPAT
Briefly: Inhibition of CHK1 (unknown origin) using Cdc25 peptide as substrate preincubated for 30 mins followed by substrate addition and measured after 60 mins by ADP-Glo kinase assay. Background: ADP-Glo first removes unused ATP, then detects ADP through luciferase.

The target of assay [2] is T2, Serine/threonine-protein kinase Chk1 (Homo sapiens) (UniProt O14757).
T2 sequence (whole entry): T1 sequence (O14757 whole entry)
The experiment in a line: Inhibition of CHK1 (unknown origin) at 10 uM using Cdc25 peptide as substrate preincubated for 30 mins followed by substrate addition and measured after 60 mins by ADP-Glo kinase assay.

Assay [3] deals with HEK293. Briefly: Antiproliferative activity against human HEK293 cells after 72 hrs by MTS assay. It is filed as functional. The settings on record: HEK293, 72 h. (Tetrazolium assays rely on reduction of a dye to a coloured formazan, in cell work by metabolically active cells.)
In assay [4] the test system is HT-29. The experiment in a line: cells. Particulars: Homo sapiens, HT-29, 72 h.
Description: Antiproliferative activity against human HT-29 cells after 72 hrs by MTS assay
In assay [5] the test system is HT-29. The experiment in a line: Cell cycle arrest in human HT-29 cells assessed as accumulation at G1 phase at 25 nM after 48 hrs by propidium iodide/RNase staining-based flow cytometric analysis (reference value: 62.1%). It is filed as functional. (A flow cytometer gives signals particle by particle.)
Assay [6] has as its system HT-29. The experiment in a line: Cell cycle arrest in human HT-29 cells assessed as accumulation at S phase at 25 nM after 48 hrs by propidium iodide/RNase staining-based flow cytometric analysis (reference value: 30.9%). Format: functional.
The test system of assay [7] is HT-29. Briefly: Cell cycle arrest in human HT-29 cells assessed as accumulation at G2 phase at 25 nM after 48 hrs by propidium iodide/RNase staining-based flow cytometric analysis (reference value: 7.0%). It is filed as functional.

As usually defined, the IC50 is the concentration that gives 50% inhibition. Low readings indicate inhibition by little substance, high ones a need for much substance. For orientation: inhibition means the share of the control response that was lost under treatment. A lower inhibition goes with a response near the control. The term GI50 denotes the concentration that inhibits growth by half. Lower therefore signals greater sensitivity of the cells. Molecule `Cc1cccc(Nc2nc(N3CCOCC3)c3nc[nH]c3n2)c1` yielded an IC50 in assay [1] of 1.27 µM. This molecule also came in with an inhibition in assay [2] of 85.2%. The GI50 in assay [3] was 40.5 µM; in assay [4] it was 67.6 µM.
For the molecule `COc1ccccc1Nc1nc(N2CCOCC2)c2nc[nH]c2n1`, the inhibition in assay [2] turned out to be 3.8%. The GI50 in assay [3] and in assay [4] was > 100 µM throughout.
As to `COc1ccc(Nc2nc(N3CCOCC3)c3sccc3n2)cc1`, the concentration for 50% growth inhibition (GI50) in assay [3] was > 100 µM; in assay [4], 29.7 µM.
`Fc1ccc(Nc2nc(NC3CCOCC3)c3nc[nH]c3n2)cc1` gave an inhibition in assay [2] of 37.2%. Also, the results for the GI50 in assay [3] and in assay [4] were > 100 µM and 86.9 µM, respectively.
Consider `NC(=O)Nc1cc(-c2cccc(F)c2)sc1C(=O)N[C@H]1CCCNC1` [AZD-7762], for which the 50% growth inhibitory concentration (GI50) in assay [3] amounted to 0.236 µM; in assay [4], 0.167 µM.
Molecule `COc1cc(Nc2nc(N3CCOCC3)c3nc[nH]c3n2)cc(OC)c1OC` came in with an inhibition in assay [2] of 35.8%. Further, the GI50 in assay [3] and in assay [4] was > 100 µM each time.
In assay [2], `FC(F)(F)c1cccc(Nc2nc(N3CCOCC3)c3nc[nH]c3n2)c1` had an inhibition of 61.3%. The results for the 50% growth inhibitory concentration (GI50) in assay [3] and in assay [4] were 31.4 µM and 29.1 µM, respectively.
The molecule `c1cncc(Nc2nc(N3CCOCC3)c3nc[nH]c3n2)c1` displayed a 50% inhibitory concentration (IC50) in assay [1] of 8.06 µM. This molecule registered an inhibition in assay [2] of 82.2%. Also, the GI50 in assay [3] was 33.7 µM; in assay [4], > 100 µM.
Turning to `N#Cc1cnc(Nc2cc(NC[C@H]3CNCCO3)c(C(F)(F)F)cn2)cn1` [SRA-737], the GI50 was determined as 1.39 µM in assay [3] and 9.22 µM in assay [4].
Molecule `Fc1cccc(Nc2nc(N3CCOCC3)c3nc[nH]c3n2)c1` registered a half-inhibitory concentration (IC50) in assay [1] of 3.6 µM. The molecule also showed an inhibition in assay [2] of 92%. The figures for the GI50 in assay [3] and in assay [4] were 33.7 µM and 60.8 µM, respectively.
The molecule `COc1cc(Nc2nc(N3CCOCC3)c3cc[nH]c3n2)cc(OC)c1OC` showed an inhibition in assay [2] of 26.9%. The GI50 in assay [3] stood at 58.7 µM; in assay [4], 50.4 µM.
Regarding `c1ccc(Nc2nc(N3CCOCC3)c3nc[nH]c3n2)cc1`, it took 2.57 µM to reach half-maximal inhibition in assay [1] (IC50). The molecule further returned an inhibition in assay [2] of 82.4%. For the same molecule, the 50% growth inhibitory concentration (GI50) in assay [3] was 60.2 µM; in assay [4] it was > 100 µM.
As for `O=C(Nc1cccc(Nc2nc(N3CCOCC3)c3nc[nH]c3n2)c1)C(F)(F)F`, the inhibition in assay [2] was determined as 50%. Further, the concentration for 50% growth inhibition (GI50) in assay [3] was 73.6 µM; in assay [4], 58 µM.
`COc1ccc(Nc2nc(N3CCOCC3)c3cc[nH]c3n2)cc1`: the inhibition in assay [2] amounted to 16.7%. The GI50 in assay [3] is 63.6 µM; in assay [4], 38.4 µM.
In turn, `Clc1cccc(Nc2nc(N3CCOCC3)c3nc[nH]c3n2)c1` registered a half-inhibitory concentration (IC50) in assay [1] of 2.83 µM. Besides, the inhibition in assay [2] turned out to be 77.3%. The results for the GI50 in assay [3] and in assay [4] were 38.4 µM and 34.8 µM, respectively.
Take `NC(=O)c1ccc(Nc2nc(N3CCOCC3)c3nc[nH]c3n2)cn1`: 9.87 µM corresponded to half-maximal inhibition in assay [1] (IC50). For the same molecule, in assay [2], the inhibition came to 80.3%. The GI50 in assay [3] and in assay [4] was 72.2 µM throughout.
In assay [2], `c1ccc2ncc(Nc3nc(N4CCOCC4)c4nc[nH]c4n3)cc2c1` gave an inhibition of 63.1%. In addition, the GI50 in assay [3] was determined as 22.3 µM; in assay [4], 25.1 µM.
Take `COc1cc(Nc2nc(N3CCOCC3)c3sccc3n2)cc(OC)c1OC`: the 50% growth inhibitory concentration (GI50) was > 100 µM in assay [3] and 31.6 µM in assay [4].
In assay [2], `FC(F)(F)Oc1cccc(Nc2nc(N3CCOCC3)c3nc[nH]c3n2)c1` returned an inhibition of 31.6%. Moreover, the GI50 in assay [3] and in assay [4] was > 100 µM throughout.
The molecule `c1cnc(Nc2nc(N3CCOCC3)c3nc[nH]c3n2)cn1` yielded an inhibition in assay [2] of 38.2%. In addition, the GI50 in assay [3] is 27.2 µM; in assay [4], > 100 µM.
Regarding `Nc1ccn([C@@H]2O[C@H](CO)[C@@H](O)C2(F)F)c(=O)n1` [GEMCITABINE], the results for the Activity in assay [5], in assay [6] and in assay [7] were 4.3%, 10.5% and 85.2%, respectively.
`COc1ccc(Nc2nc(N3CCOCC3)c3nc[nH]c3n2)cc1`: in assay [2], the inhibition was found to be 51%. The values for the GI50 in assay [3] and in assay [4] were > 100 µM and 74.5 µM, respectively.
`c1ccc(Nc2nc(N3CCOCC3)c3cc[nH]c3n2)cc1` returned an inhibition in assay [2] of 44.5%. Besides, the values for the GI50 in assay [3] and in assay [4] were 64.7 µM and 58.3 µM, respectively.
As to `c1ccc(Nc2nc(N3CCOCC3)c3sccc3n2)cc1`, the GI50 in assay [3] was > 100 µM; in assay [4] it was 54.5 µM.
Regarding `COc1cccc(Nc2nc(N3CCOCC3)c3nc[nH]c3n2)c1`, the IC50 in assay [1] came to 3.63 µM. In assay [2], this molecule showed an inhibition of 84.9%. The GI50 is 38.7 µM in assay [3] and 72.6 µM in assay [4].
With `c1ccc(Nc2nc(NC3CCOCC3)c3nc[nH]c3n2)cc1`, the inhibition in assay [2] is 61.5%. The concentration for 50% growth inhibition (GI50) in assay [3] was found to be 31.5 µM; in assay [4], 80.3 µM.
